100 molecules from ChEMBL document CHEMBL3507680, “University of Dundee, Gates Library screen for HepG2 cell viability” can be followed below.

This data set in a line: Human HepG2 cell viability assay in 384 well format. It counts as toxicity, cell-based. The arrangement: dose 125 nL, time 70.5 hour; cytotoxicity at 70.5 h: concentration not given beside the values. As to conditions: HepG2 cells, read-out: Inhibition.
Consider `CCNC(=O)[C@@H]1C[C@@H](NC(=O)Cc2cc(C)no2)CN1Cc1ccsc1`, for which the cytotoxicity at 70.5 h is -12.7%.
As for `O=C1[C@H]2CCCC[C@H]2C(=O)N1c1cnn(Cc2cccc(F)c2)c1`, the figure is 1.76%.
`Cc1nn(C)c2c(NCc3ccccn3)nc(C(C)C)nc12`: the cytotoxicity at 70.5 h stood at 20.7%.
As for `CN(C)CC1CN(Cc2csc(C3CCCC3)n2)CCO1` (stereo not given), the figure is -12.3%; as for `CC(=O)N1CCC2(CC1)[C@@H]1CN(Cc3cccnc3)C[C@@H]1C(=O)N2C`, 18.5%.
As for `O=C(c1cccnc1OCC(F)(F)F)N1CCCn2ncnc21`, the figure is 14.8%.
As for `O=C1OC2(CCNCC2)CN1CC(=O)N1CCCC1c1ccco1` (stereo not given), the figure is -9.95%; as for `Cc1ccc(CNC(=O)CNCC2CCN(CCO)CC2)s1`, -1.79%; as for `CN(Cc1ccc(Cl)c(F)c1)C(=O)CCc1ccncc1`, -6.42%.
With `Cn1c(NCC(O)c2ccc(F)cc2)c(C#N)c(=O)n(C)c1=O` (stereo not given), the cytotoxicity at 70.5 h is -5.75%.
The result for `COc1ccc(Br)c(C(=O)NC(CC(=O)O)c2cccs2)c1` (stereo not given) reads -11.5%; that for `CCn1cc(N)c(-c2nnc3n2CCC3)n1`, 13.1%.
Take `Cc1ccccc1-c1noc(C2CC(C(C)C)=NO2)n1` (stereo not given): the cytotoxicity at 70.5 h was -0.419%.
As to `CC(C(=O)N1CCN(Cc2ccc3c(c2)OCO3)CC1)n1ccnc1` (stereo not given), the cytotoxicity at 70.5 h came out at 0.67%.
The result for `CS(=O)(=O)CCCSCc1ccc(Br)c(F)c1` reads -1.93%.
As for `O=C(NCC(F)(F)F)C1CSCN1S(=O)(=O)c1ccccc1F` (stereo not given), the figure is 26%.
As for `O=C(NCCSC1CCCC1)c1cnccn1`, the figure is 29.4%.
For `CN1CCO[C@@H]2CN(C(=O)c3ccc4ncccc4c3)CC[C@@H]2C1`, the cytotoxicity at 70.5 h was -8.09%.
As to `CCN1CC2(CC1=O)CN(Cc1ccncc1)CCN(C(=O)C(C)C)C2` (stereo not given), the cytotoxicity at 70.5 h amounted to 28.2%.
Take `CNc1ncccc1C(=O)N1CCCC2(C1)C(=O)N(C)c1ccccc12` (stereo not given): the cytotoxicity at 70.5 h is -7.64%.
The result for `COCCC(=O)Nc1ccnn1-c1ccccc1` reads 1.36%; that for `CC(C)COCCC(=O)NCCC(=O)N1CCN(c2ccccn2)CC1`, -2.77%; that for `COC(=O)COc1ccc(-c2noc(C3CCCO3)n2)cc1` (stereo not given), 24.5%.
As for `O=C1CCSCC(C(=O)N2CCOCC2)N1` (stereo not given), the figure is 0.753%; as for `c1csc(-c2nc(CN3CCOC(Cn4cccn4)C3)cs2)c1` (stereo not given), -8.48%; as for `CC(=O)c1cnc(NCCN2CCCC2)nc1C`, -0.135%.
As for `CC(C)Oc1ncccc1CNC(=O)N1CCC1`, the figure is -7.74%.
Regarding `F[C@@H]1CN(CC2CC2)C[C@@H]1OCc1nc2ccccc2[nH]1`, the cytotoxicity at 70.5 h stood at 14.4%.
As for `CCN(CC)C(=O)c1nnsc1-c1ccc(C)cc1`, the figure is -8.98%; as for `O=C1NCCN1C1CCN(CCc2cccs2)CC1`, -11.4%.
The result for `O=C(CCNS(=O)(=O)c1ccccc1)NCc1ccoc1` reads -9.84%; that for `Cc1cc(Nc2cnccn2)cc(C2CCCN2)n1` (stereo not given), 12.2%.
On to `CNC(=O)Cc1noc(Cc2ccc3c(c2)CCCC3)n1`, for which the cytotoxicity at 70.5 h amounted to 12.5%.
As for `CC(C)(C)C1CCC(NCCN2CCOCC2)CC1` (stereo not given), the figure is -5.37%; as for `Cc1ccc(C(=O)NCC2CCN(Cc3ccccc3C#N)C2)cn1` (stereo not given), -5.59%; as for `O=C1[C@@H]2CCN(Cc3ccoc3)C[C@@H]2OCCN1c1cccnc1`, -13.5%.
As for `Cc1cc(=O)[nH]c(=O)n1-c1ccccc1Br`, the figure is -2.81%.
As for `CN(C)C(CNC(=O)c1nc(N2CCOCC2)ncc1Cl)c1cccs1` (stereo not given), the cytotoxicity at 70.5 h is -8.97%.
As to `CS(=O)(=O)CCN1CCCC1c1noc(C2CC2)n1` (stereo not given), the cytotoxicity at 70.5 h is 0.883%.
As for `Cc1cc(C(=O)N2CCN(Cn3cc(Cl)cn3)CC2)on1`, the figure is -8.38%; as for `Cc1nsc(NC(=O)NC2CCN(C)CC2)n1`, -11.7%; as for `NCc1n[nH]c(-c2ccc(Br)cc2)n1`, 2.27%.
As for `CN(C)C(=O)CO[C@@H]1CC[C@H]2[C@H]1OCCN2c1ncccn1`, the cytotoxicity at 70.5 h turned out to be 4.77%.
As for `CCOc1ccnc(N2CCN(C(=O)c3cccnc3O)CC2)n1`, the figure is 1.67%.
On to `CNC(=O)CN1CCC(NC(=O)Cn2cc(C)c3ccccc32)CC1`, for which the cytotoxicity at 70.5 h stood at 0.492%.
As for `COc1cc(-c2cnnc(NCC3CC3)n2)cc(OC)c1OC`, the figure is 5.52%.
The result for `COCCN(C)C1COC2(CCN(Cc3cccc(F)c3)CC2)C1` (stereo not given) reads 10.1%.
As for `O=C1N(CCCc2ccccc2)CCCC1(O)CN1CCC(CO)CC1` (stereo not given), the figure is -9.35%; as for `NC(=O)c1ccc(-n2ccnc2C2CC2)cc1N1CCCC1`, -3.29%; as for `CC(c1ncc(-c2ccccc2)o1)N1CCN(C(=O)C(C)(C)C)CC1` (stereo not given), -25.9%.
`O=C1NC2(CCN(Cc3ccoc3)CC2)CC1c1ccncc1` (stereo not given): the cytotoxicity at 70.5 h is 11%.
Take `Cc1ccccc1C(C)N(C)Cc1nc2c(cnn2C)c(=O)[nH]1` (stereo not given): the cytotoxicity at 70.5 h is -6.49%.
Consider `Cc1ccccc1CSc1nc(N)cc(N2CCC(CC(N)=O)CC2)n1`, for which the cytotoxicity at 70.5 h is -3.38%.
The result for `COc1ccccc1OC1CN(C(=O)Cc2c(C)nc(N)nc2C)C1` reads 1.7%; that for `CCc1nnc(CN(C)Cc2cccc(C(=O)Nc3cnn(C)c3)c2)o1`, 3.92%; that for `Cn1ccnc1C(=O)N1CCC2(CCN2CC2CC2)C1` (stereo not given), 9.69%.
`CC(C)c1cc(C2CCN(C(=O)Cn3nc4ccccc4n3)CC2)[nH]n1`: the cytotoxicity at 70.5 h was -5.96%.
As for `O=C1N(c2ccccc2)C[C@H]2CN(C3CCC3)CCN12`, the cytotoxicity at 70.5 h was -3.05%.
Take `COc1ccc(C(=O)O)c(OCC(=O)NC(C)c2ccc(F)cc2)c1` (stereo not given): the cytotoxicity at 70.5 h is -6.92%.
For `CC(C)(C)S(=O)(=O)CCNC1CSCCc2ccccc21` (stereo not given), the cytotoxicity at 70.5 h was 27.7%.
The result for `O=C(COCc1ccccc1)Nc1ccccn1` reads 0.318%.
As for `CO[C@H]1C[C@@H]2CN(C(=O)Cc3ccc(C)s3)C[C@@H]2C1`, the figure is -2.91%; as for `Cc1nnc(CN2CCCC(c3noc(C4CC4)n3)C2)o1` (stereo not given), -4.3%.
In the case of `CCCc1nc(N2CCCC3(CCNC3)C2)c2cnn(C)c2n1` (stereo not given), the cytotoxicity at 70.5 h is -7.26%.
As for `CC(C)n1nnc(CC(=O)NCC2(c3ccccc3F)CCOCC2)n1`, the figure is -8.63%; as for `Cc1cnc(N)c(C(=O)C2CCN(C(=O)C3CCC3)CC2)c1`, 11.3%.
The result for `OCCC1CN(C2CCC2)CCN1C1CCCC1` (stereo not given) reads -6.56%.
Regarding `O=C(C1SCCc2sccc21)N1CCC(O)CC1` (stereo not given), the cytotoxicity at 70.5 h was found to be 1.7%.
As for `CC(C)(N)C(=O)N1CCCC(c2cncc(Oc3cccnc3)n2)C1` (stereo not given), the figure is -3.9%.
As for `Cc1nc(CN2C(=O)CC[C@@H]3[C@H]2CCN3C(=O)NC2CC2)cs1`, the figure is 21.8%; as for `c1cnc(N2C[C@H](OCC3CCOCC3)[C@H]3COC[C@H]32)nc1`, -1.34%.
The result for `CS(=O)(=O)c1ccc(OCCNCc2cccc(O)c2)cc1` reads -0.254%.
For `c1cncc(N2CCCC3(CCN(CC4CCCO4)CC3)C2)c1` (stereo not given), the cytotoxicity at 70.5 h was -7.19%.
In the case of `CCNC(=O)CNC(=O)Nc1cccc(Cl)c1SC(F)F`, the cytotoxicity at 70.5 h is 0.0144%.
Consider `Cc1nc(N2CCN(C(=O)c3ccncc3)CC2)c2c(n1)c(C)nn2C`, for which the cytotoxicity at 70.5 h turned out to be 19.4%.
`CC(C)NC(=O)N1CCC[C@H]1C(=O)NCCCc1cccc(F)c1`: the cytotoxicity at 70.5 h was -5.95%.
Regarding `O=C(CCN1CCCCO1)N1CCC(CO)(CCc2ccccc2)CC1`, the cytotoxicity at 70.5 h was -10.2%.
The result for `Cc1ccc(-c2nc(CN(Cc3ccco3)C3CCS(=O)(=O)C3)cs2)o1` (stereo not given) reads 15.2%.
For the molecule `Cc1ccc(O[C@@H]2C[C@H]3CN(C(=O)c4cnccn4)CCN3C2)cc1`, the cytotoxicity at 70.5 h was -4.43%.
Take `CN(C)C(=O)CN1C[C@H]2CCN(C(=O)C3CCCO3)CC[C@H]2S1(=O)=O` (stereo not given in full): the cytotoxicity at 70.5 h is -4.76%.
With `Cc1cccc(C(=O)N2CCc3c(CN(C)C)nn(C)c3C2)n1`, the cytotoxicity at 70.5 h is -14.3%.
On to `Cc1cnc(CNCc2cn(CCN3CCSCC3)nc2C)cn1`, for which the cytotoxicity at 70.5 h is 24.8%.
The result for `CCOc1cccc(COC(=O)c2ccc(Cl)cn2)n1` reads -8.76%.
For `O=C(c1cnccn1)N1CC[C@H]2[C@@H]1CCC(=O)N2c1cccnc1`, the cytotoxicity at 70.5 h was -17.4%.
As for `O=C(c1c[nH]c(=O)[nH]1)N1CCCC2(CCC(=O)N(C3CCCC3)C2)C1` (stereo not given), the figure is 1.3%; as for `Cc1ccc(NCCCNC(=O)NCC2CCS(=O)(=O)C2)nc1` (stereo not given), -17.4%.
For `Cc1cn(CCn2ccnc2-c2sccc2C)nn1`, the cytotoxicity at 70.5 h was -2.5%.
The result for `CC(=O)Oc1ccnc(C(F)(F)F)c1C(C)=O` reads -3.5%.
The result for `Cc1c(NC(=O)CN2CCN(C3CCCC3)C(=O)C2)cnn1C` reads -2.64%.
On to `CN1CCC[C@H]1c1nc(-c2cncnc2N)no1`, for which the cytotoxicity at 70.5 h was -7.81%.
Consider `COc1ccc2oc(C(C)NC(=O)NCc3noc(C)n3)c(C)c2c1` (stereo not given), for which the cytotoxicity at 70.5 h is -12%.
For `Cc1ccc(CN(Cc2cccnc2)C2CC(C)(C)NC(C)(C)C2)s1`, the cytotoxicity at 70.5 h was 9.23%.
As for `CN1CCN(c2cc(NC(=O)Cn3ccc4ccccc43)ncn2)CC1`, the figure is 1.47%; as for `Cc1ccccc1-n1cnc(Cl)c1CO`, 18.4%.
As for `CCN(C(=O)CCc1ccccc1)C1CC(=O)NC1=O` (stereo not given), the figure is 0.716%.
`CC(C)(C)CN1CCCC(c2nccnc2Nc2cnccn2)C1` (stereo not given): the cytotoxicity at 70.5 h was -12.3%.
With `O=C(C1SCCc2sccc21)N1CCN(C2CC2)C(=O)C1` (stereo not given), the cytotoxicity at 70.5 h is -5.13%.
As for `CN(C)C(c1ccccn1)[C@H]1CC[C@H](CNC(=O)CC2CCCC2)CC1` (stereo not given in full), the figure is -7.26%; as for `Cc1cccnc1N1CCN(C(=O)CCc2cn3ccccc3n2)CC1`, 15.3%.
As for `CCc1nc(N2CCC3(CCC(=O)N(CCCO)C3)CC2)no1`, the figure is 9.45%.
